# From ChEMBL document CHEMBL4152249, “Alkoxyphenylthiazoles with broad-spectrum activity against multidrug-resistant gram-positive bacterial pathogens” (Eur J Med Chem, 2018)
# What was measured:
# Assay type in all cases: functional
# [1] = test system: Staphylococcus aureus; assay: Bactericidal activity against vancomycin-resistant Staphylococcus aureus VRSA10 incubated for 20 hrs followed by re-plating on tryptic soy agar plates at 37 degC for 18 hrs by broth microdilution assay
# [2] = test system: Staphylococcus aureus; assay: Bactericidal activity against Staphylococcus aureus USA400 NRS123 incubated for 20 hrs followed by re-plating on tryptic soy agar plates at 37 degC for 18 hrs by broth microdilution assay
# [3] = test system: Enterococcus faecalis; assay: Bactericidal activity against vancomycin-resistant Enterococcus faecalis ATCC 51299 incubated for 20 hrs followed by re-plating on tryptic soy agar plates at 37 degC for 18 hrs by broth microdilution assay
# [4] = test system: Streptococcus pneumoniae; assay: Antibacterial activity against methicillin-resistant Streptococcus pneumoniae ATCC 700677 after 20 hrs by broth microdilution assay; settings: ATCC 700677, 20 h
# [5] = test system: Staphylococcus aureus; assay: Bactericidal activity against methicillin-resistant Staphylococcus aureus NRS385 incubated for 20 hrs followed by re-plating on tryptic soy agar plates at 37 degC for 18 hrs by broth microdilution assay
# [6] = test system: Staphylococcus aureus; assay: Bactericidal activity against methicillin-resistant Staphylococcus aureus NRS386 incubated for 20 hrs followed by re-plating on tryptic soy agar plates at 37 degC for 18 hrs by broth microdilution assay
# [7] = test system: Staphylococcus aureus; assay: Antibacterial activity against methicillin-resistant Staphylococcus aureus 2658 RCMB after 20 hrs by broth microdilution assay
# [8] = test system: Staphylococcus aureus; assay: Bactericidal activity against Staphylococcus aureus USA300 NRS384 incubated for 20 hrs followed by re-plating on tryptic soy agar plates at 37 degC for 18 hrs by broth microdilution assay
# [9] = test system: Staphylococcus aureus; assay: Bactericidal activity against vancomycin-resistant Staphylococcus aureus VRSA12 incubated for 20 hrs followed by re-plating on tryptic soy agar plates at 37 degC for 18 hrs by broth microdilution assay
# [10] = test system: Staphylococcus aureus; assay: Bactericidal activity against methicillin-sensitive Staphylococcus aureus NRS107 incubated for 20 hrs followed by re-plating on tryptic soy agar plates at 37 degC for 18 hrs by broth microdilution assay
# [11] = test system: Enterococcus faecium; assay: Bactericidal activity against vancomycin-resistant Enterococcus faecium ATCC 700221 incubated for 20 hrs followed by re-plating on tryptic soy agar plates at 37 degC for 18 hrs by broth microdilution assay
# [12] = test system: Enterococcus faecalis; assay: Antibacterial activity against vancomycin-resistant Enterococcus faecalis ATCC 51299 after 20 hrs by broth microdilution assay; settings: ATCC 51299, 20 h
# [13] = test system: Staphylococcus aureus; assay: Bactericidal activity against linezolid-resistant Staphylococcus aureus NRS119 incubated for 20 hrs followed by re-plating on tryptic soy agar plates at 37 degC for 18 hrs by broth microdilution assay
# [14] = test system: Staphylococcus aureus; assay: Antibacterial activity against vancomycin-resistant Staphylococcus aureus VRSA10 after 20 hrs by broth microdilution assay; settings: VRSA10, 20 h
# [15] = test system: Streptococcus pneumoniae; assay: Antibacterial activity against cephalosporin-resistant Streptococcus pneumoniae ATCC 51916 after 20 hrs by broth microdilution assay; settings: ATCC 51916, 20 h
# [16] = test system: Enterococcus faecium; assay: Antibacterial activity against vancomycin-resistant Enterococcus faecium ATCC 700221 after 20 hrs by broth microdilution assay; settings: ATCC 700221, 20 h
# [17] = test system: Staphylococcus aureus; assay: Antibacterial activity against vancomycin-resistant Staphylococcus aureus VRSA12 after 20 hrs by broth microdilution assay; settings: VRSA12, 20 h
# [18] = test system: Listeria monocytogenes; assay: Antibacterial activity against Listeria monocytogenes ATCC 19111 after 20 hrs by broth microdilution assay; settings: ATCC 19111, 20 h
structure (smiles),measurement,setting,value
CN[C@H](CC(C)C)C(=O)N[C@H]1C(=O)N[C@@H](CC(N)=O)C(=O)N[C@H]2C(=O)N[C@H]3C(=O)N[C@H](C(=O)N[C@H](C(=O)O)c4cc(O)cc(O)c4-c4cc3ccc4O)[C@H](O)c3ccc(c(Cl)c3)Oc3cc2cc(c3O[C@@H]2O[C@H](CO)[C@@H](O)[C@H](O)[C@H]2O[C@H]2C[C@](C)(N)[C@H](O)[C@H](C)O2)Oc2ccc(cc2Cl)[C@H]1O [VANCOMYCIN],MBC,[1],> 64 µg/mL
same,MBC,[2],1 µg/mL
same,MBC,[3],64 µg/mL
same,MIC,[4],2 µg/mL
same,MBC,[5],1 µg/mL
same,MBC,[6],1 µg/mL
same,MIC,[7],1.56 µg/mL
same,MBC,[8],1 µg/mL
same,MBC,[9],> 64 µg/mL
same,MBC,[10],2 µg/mL
same,MBC,[11],> 64 µg/mL
same,MIC,[12],16 µg/mL
same,MBC,[13],1 µg/mL
same,MIC,[14],> 64 µg/mL
same,MIC,[15],2 µg/mL
same,MIC,[16],> 64 µg/mL
same,MIC,[17],> 64 µg/mL
same,MIC,[18],1 µg/mL
CCCCCCCOc1ccc(-c2nc(C)c(-c3ccnc(NC)n3)s2)cc1,MIC,[7],> 50 µg/mL
CCCCCCCOc1ccc(-c2nc(C)c(-c3ccnc(N)n3)s2)cc1,MIC,[7],> 50 µg/mL
CCCCCCCCOc1ccc(-c2nc(C)c(-c3ccnc(NC(=N)NC)n3)s2)cc1,MIC,[7],> 50 µg/mL
CCCCCCCOc1ccc(-c2nc(C)c(-c3ccnc(NN4CCOCC4)n3)s2)cc1,MIC,[7],25 µg/mL
